Where two headings read alike, the source gives them in different places.
Key:
VDR with SRC-1 = target: T1, VDR with SRC-1 (Homo sapiens, UniProt P11473); assay: Mammalian two-hybrid assay, VDR binding to SRC-1
T1 sequence (P11473 1-427): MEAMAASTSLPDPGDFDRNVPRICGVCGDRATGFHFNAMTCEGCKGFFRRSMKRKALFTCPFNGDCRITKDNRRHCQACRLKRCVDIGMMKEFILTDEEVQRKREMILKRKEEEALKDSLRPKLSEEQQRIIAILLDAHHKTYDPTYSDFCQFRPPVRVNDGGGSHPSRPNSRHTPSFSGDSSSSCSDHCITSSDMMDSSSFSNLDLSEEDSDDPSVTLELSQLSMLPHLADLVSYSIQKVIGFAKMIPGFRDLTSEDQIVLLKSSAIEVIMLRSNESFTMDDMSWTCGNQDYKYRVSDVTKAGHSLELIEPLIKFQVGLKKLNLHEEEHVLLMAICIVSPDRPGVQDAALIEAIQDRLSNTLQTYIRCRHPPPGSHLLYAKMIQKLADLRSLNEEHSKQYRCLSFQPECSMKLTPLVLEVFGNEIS
T1 sequence (Q15788 595-771 partner limits assumed): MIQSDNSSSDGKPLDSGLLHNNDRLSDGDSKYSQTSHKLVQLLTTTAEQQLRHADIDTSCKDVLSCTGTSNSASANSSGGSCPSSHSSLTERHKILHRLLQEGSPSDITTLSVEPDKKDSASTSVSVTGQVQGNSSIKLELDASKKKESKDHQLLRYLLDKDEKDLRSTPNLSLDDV

[1] = system: CYP24A1 expression in H292 cells; assay: CYP24A1 expression (RT-qPCR) in H292 cells; settings: H292 lung cells, 100 nM, 24 h
[2] = system: CYP24A1 expression in HaCaT cells; assay: CYP24A1 expression (RT-qPCR) in HaCaT cells; settings: HaCaT skin cells, 100 nM, 24 h
VDR with RXRα = target: T2, VDR with RXRα (Homo sapiens, UniProt P11473); assay: Mammalian two-hybrid assay, interaction of the VDR with RXRα
T2 sequence (P11473 1-427): T1 sequence (P11473 1-427)
T2 sequence (P19793 1-462 partner): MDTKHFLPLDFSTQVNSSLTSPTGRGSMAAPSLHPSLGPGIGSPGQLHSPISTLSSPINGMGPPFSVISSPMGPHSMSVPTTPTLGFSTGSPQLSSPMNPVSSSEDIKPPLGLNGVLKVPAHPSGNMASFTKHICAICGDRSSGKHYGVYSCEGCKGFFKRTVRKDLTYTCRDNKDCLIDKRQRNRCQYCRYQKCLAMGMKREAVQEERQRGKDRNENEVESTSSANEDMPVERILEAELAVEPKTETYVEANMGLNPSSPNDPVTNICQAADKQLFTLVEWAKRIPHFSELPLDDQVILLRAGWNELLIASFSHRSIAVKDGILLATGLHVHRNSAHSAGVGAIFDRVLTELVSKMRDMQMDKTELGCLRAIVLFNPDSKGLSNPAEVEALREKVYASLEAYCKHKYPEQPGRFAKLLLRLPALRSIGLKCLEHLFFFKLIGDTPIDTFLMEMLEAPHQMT

[3] = system: CYP24A1 expression in SW480 cells; assay: CYP24A1 expression (RT-qPCR) in SW480 cells; settings: SW480 intestine cells, 100 nM, 24 h
hVDR = target: T3, hVDR (Homo sapiens, UniProt P11473); assay: VDR transactivation luciferase reporter assay in HEK293 cells (SPP×3-tk-LUC); type: cell-based
T3 construct: expressed in transfected cells; host or cells: HEK293
T3 sequence (P11473 1-427): T1 sequence (P11473 1-427)
Protocol: The transcriptional activity of the 25-alkylvitamin D analogs on the VDR was evaluated via a luciferase reporter assay in HEK293 human kidney cells transfected with an hVDR expression vector and a luciferase reporter with mouse osteopontin vitamin D response elements (VDREs, SPP×3-tk-LUC).
Transfections of 50 ng of TK-Spp × 3-LUC reporter plasmid, 10 ng of pCMX-β-galactosidase, and 15 ng of pCMX-VDR for each well of a 96-well plate were performed in HEK293 cells using the calcium phosphate coprecipitation method, as described previously. The mammalian two-hybrid assay for cofactor interaction with VDR used 50 ng of TK-MH100(UAS) × 3- LUC reporter plasmid, 10 ng of pCMX-β-galactosidase, 15 ng of pCMX-GAL4-RXRα, pCMX-GAL4-SRC1, or pCMX-GAL4-NCoR, and 15 ng of pCMX-VP16-VDR for each well of a 96-well plate. Luciferase and β-galactosidase activities were measured with a luminometer and a microplate reader (Molecular Devices, Sun Jose, CA, USA), respectively. Luciferase values were normalized to the internal β-galactosidase control.
HEK293 cells were co-transfected with TK-Spp × 3-LUC reporter plasmid and pCMX−VDR, and 8 h after transfection the cells were treated with several concentrations of each compound. After 24 h, the cells were harvested for assaying luciferase and β-galactosidase activity using a luminometer (Molecular Devices, Sunnyvale, CA, USA).

[4] = system: CYP24A1 expression in U937 cells; assay: CYP24A1 expression (RT-qPCR) in U937 cells; settings: U937 blood cells, 100 nM, 24 h
recombinant hVDR-LBD [5] = target: T4, recombinant hVDR-LBD (Homo sapiens, UniProt P11473); assay: biochemical
T4 sequence (P11473 140-427): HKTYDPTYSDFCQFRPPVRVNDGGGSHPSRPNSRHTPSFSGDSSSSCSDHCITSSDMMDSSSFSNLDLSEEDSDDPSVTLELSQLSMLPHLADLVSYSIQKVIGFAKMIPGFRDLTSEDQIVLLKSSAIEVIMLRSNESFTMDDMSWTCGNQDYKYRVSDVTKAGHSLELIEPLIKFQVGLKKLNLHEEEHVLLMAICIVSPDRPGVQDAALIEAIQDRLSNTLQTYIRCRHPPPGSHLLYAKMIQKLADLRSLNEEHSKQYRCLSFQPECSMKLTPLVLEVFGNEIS

recombinant hVDR-LBD [6] = target: T4, recombinant hVDR-LBD; settings: relative to 1,25(OH)2D3
[7] = system: CYP24A1 expression in HEK293 cells; assay: CYP24A1 expression (RT-qPCR) in HEK293 cells; settings: HEK293 kidney cells, 100 nM, 24 h
VDR with NCoR = target: T5, VDR with NCoR (Homo sapiens, UniProt P11473); assay: Mammalian two-hybrid assay, dissociation of NCoR from the VDR
T5 sequence (P11473 1-427): T1 sequence (P11473 1-427)

With `C=C1[C@H](O)CC(=C/C=C2\CCC[C@]3(C)[C@@H]([C@H](C)CC#C[C@](O)(CCCC)C45CC6CC(CC(C6)C4)C5)CC[C@@H]23)C[C@H]1O` [ADKM6, (25S)-25-(1-Adamantyl)-1α,25-dihydroxy-2-methylidene-26-propyl-23-yne-19,27-dinorvitamin D3] the EC50 (VDR with SRC-1) was 2.4 nM, the “CYP24A1 expression relative to natural hormone 1” value [1] was 87.9% and the “CYP24A1 expression relative to natural hormone 1” value [2] was 72.5%. For the same molecule, the “VDR-RXRα interaction EC50” value (VDR with RXRα; HEK293 cells, two-hybrid) was “second-highest activity”, the VDR-RXRα interaction efficacy (VDR with RXRα; compared to natural hormone 1) was 114% and the “CYP24A1 expression relative to natural hormone 1” value [3] was 72.9%. For the same molecule, the Transcriptional activity efficacy (hVDR; 1,25(OH)2D3 = 100%) was 95%, the EC50 (hVDR; read-out: Transcriptional activity EC50) was 0.62 nM and the Emax (hVDR; this study, read-out: Transcriptional Activity % Efficacy of That of 1 (converted)) was 95%. The EC50 (hVDR; this study, read-out: Transcriptional Activity EC50) was 0.6 nM, the “CYP24A1 expression relative to natural hormone 1” value [4] was 77.2% and the IC50 (recombinant hVDR-LBD [5]) was 1.6 nM. For the same molecule, the “VDR affinity, % of that of 1,25(OH)2D3” value (recombinant hVDR-LBD [6]) was 23%, the “CYP24A1 expression relative to natural hormone 1” value [7] was 61.4% and the IC50 (VDR with NCoR) was 0.4 nM.
